In patent publication US4762781A, “Antibodies capable of specifically identifying haptenic groups, their preparation and their use and to new antigens permitting their preparation” (priority 1983, dated 1988):
“Also recorded” adds a separate entry of the source. Read-outs that look alike come from different tables or passages of the source.

Key:
anti-DA antibodies = test: Equilibrium dialysis competition, displacement of (3H) DA-G-ALM; format: binding, rabbit; settings: for affinity constant KA: displacement of (3H) DA-G-ALM from anti-DA antibodies; for affinity constant KA / KA: 1200 min; for KA: conjugates, cross-reactivity with anti-DA antibodies
anti-TA antibodies = test: Equilibrium dialysis competition, displacement of (3H)-TA-G-ALM; format: binding, rabbit; settings: for affinity constant KA: displacement of (3H)-TA-G-ALM from anti-TA antibodies; for affinity constant KA / KA: 1200 min; for KA: conjugates, slight immunoreactivity with anti-TA antibodies
anti-GABA antiserum = test: Equilibrium dialysis competition with tracer (3H) GABA-GA-PPL; format: binding, rabbit; settings: for cross-reactivity, times less than that of the GABA-GA-PPL conjugate: anti-GABA antiserum
Protocol: The antibody solution is placed on one side of the membrane. Each conjugate of catecholamine is mixed with an equal volume of radioactive ligand before being placed on the other side of the membrane. The incubation solution of each antiserum is a citrate buffer 0.1M (pH 6.2) containing 1 mg/ml of bovine serum albumin (BSA) and 10 mM of sodium azide (N3 Na). The final volume is 2×150 microliters. This is left to incubate at 4° C. for 20 hours. Next the beta radioactivity in a sample of 100 microliters taken from each side of the membrane is counted.
Studies of specificity were conducted using the method of equilibrium dialysis, by competition of the tracer (^3 H) GABA-GA-PPL and the various conjugated analogues GABA-GA-PPL, glycine-GA-PPL, etc.

GABA antiserum = test: Immunocytochemical absorption controls of GABA antiserum on rat brain sections; design: species or system rabbit; settings: absorption with a 10^-3 M solution
Protocol: Rat brains were fixed by perfusion with a 5% solution of glutaraldehyde in a cacodylate buffer, 0.1M, pH 7.5. The brain was cut in slices approximately 4 mm thick and then fixed again for 1.5-2 hours using the same fixative.
Sections of 50 micrometers were incubated with GABA antiserum diluted to 1/1,500. This antiserum was visualized using the peroxidase-antiperoxidasemethod, with diaminobenzidine as the chromogen.

Anti-NA antibodies = format: binding, rabbit
Anti-W antibodies = test: ELISA competition, affinity and specificity of anti-indolamine antibodies; format: binding, rabbit
Protocol: This study was performed using an ELISA test (Enzyme-linked immunosorbent assay). The plates were coated with a solution of BSA-G-indolamine conjugate and then saturated with bovine serum. they were then placed in contact with the antibody solution under study, and then with anti-(rabbitgammaglobulin) goat antibodies conjugated with peroxidate of horseradish.

[1] = concentrations between 10^-9 M and 10^-8 M

In the case of CNC(=O)[C@H](CCCCNCCCCCNCCc1ccc(O)c(O)c1)NC(C)=O [DA-G-ALM], the “displacement of (3H) DA-G-ALM / recognition by anti-DA antibodies” value (anti-DA antibodies) is reported as “No displacement”, the “affinity constant KA” value (anti-DA antibodies) is reported as 6.7×10^7 l.mol.^-1 and the “displacement of (3H) DA-G-ALM / recognition by anti-DA antibodies” value (anti-DA antibodies; listed as DA-b-ALM) is reported as “best displacement”. The “displacement of (3H)-TA-G-ALM / recognition by anti-TA antibodies” value (anti-TA antibodies) was “No displacement; also recorded: no affinity” and the “affinity constant KA” value (anti-TA antibodies) was 2.6×10^4 l.mol.^-1.

For NCCCC(=O)O [GABA, gamma-aminobutyric acid, reference compound], the “displacement of the radioactive ligand (3H) GABA-GA-PPL” value (anti-GABA antiserum; even at a concentration of 10^-5 M) was “incapable of displacing” and the “coloration after absorption of the serum” value (GABA antiserum) was “very great reduction in coloration”.

O=C(O)CCCNCCCCCNCCCC[C@H](NC(=O)[C@H](Cc1ccccc1)NC(=O)[C@@H]1CCCN1)C(=O)O [GABA--GA--lysine] gave a Kd (anti-GABA antiserum; dissociation constant of the anti-GABA antibodies for the antigen) of 20 nM.

CNC(=O)[C@H](CCCCNCCCCCN[C@@H](Cc1ccc(O)c(O)c1)C(=O)O)NC(C)=O [L-DOPA--G--ALM] was tested, and the KA (anti-DA antibodies) was 3.8 × 10^5 1. mol.^-1 and the KA (anti-TA antibodies) was 3.3 × 10^5 1. mol.^-1.

For NC[C@H](O)c1ccc(O)c(O)c1 [NA, norepinephrine, reference compound], the “displacement” value (Anti-NA antibodies) was “no displacement”.

With CNC(=O)[C@H](CCCCNCCCCCNCC(O)c1ccc(O)c(O)c1)NC(C)=O (some centres unmarked) [NA-G-ALM] the “reactivity, times lower than that of DA-G-ALM” value (anti-DA antibodies; anti-DA antibodies) was 53 times, the “affinity constant KA” value (anti-DA antibodies) was 5×10^5 l.mol.^-1 and the “displacement of (3H)-TA-G-ALM / recognition by anti-TA antibodies” value (anti-TA antibodies) was “No displacement”. The “affinity constant KA” value (anti-TA antibodies) was 1.4×10^4 l.mol.^-1, the “displacement” value (Anti-NA antibodies) was “best displacement” and the KA (Anti-NA antibodies; 1200 min) was 3.8e+07 L/mol.

In the case of CNC(=O)[C@H](CCCCNCCCCCNCC(O)c1ccc(O)cc1)NC(C)=O (some centres unmarked) [OA--G--ALM], the KA (anti-DA antibodies) is reported as 5 × 10^4 1. mol.^-1 and the KA (anti-TA antibodies) is reported as 5.9 × 10^5 1. mol.^-1.

With NCCc1ccc(O)cc1 [TA, p-tyramine, reference compound] the “displacement of (3H)-TA-G-ALM / recognition by anti-TA antibodies” value (anti-TA antibodies) was “incapable of displacing” and the “affinity constant KA” value (anti-TA antibodies) was 10^4 l.mol.^-1.

For CNC(=O)[C@H](CCCCNCCCCCNCCc1ccc(O)cc1)NC(C)=O [TA-G-ALM], the “displacement of (3H) DA-G-ALM / recognition by anti-DA antibodies” value (anti-DA antibodies) was “No displacement; also recorded: do not recognize”, the KA (anti-DA antibodies) was 3.1 × 10^4 1. mol.^-1 and the “affinity constant KA” value (anti-TA antibodies) was 7×10^7 l.mol.^-1.

N[C@@H](Cc1c[nH]c2ccccc12)C(=O)O [Tryptophane, L-tryptophane] was tested, and the “displacement / identification by anti-W antibodies” value (Anti-W antibodies) was “only weakly identified”.

O=C(O)CC(NCCCCCNCCCC[C@H](NC(=O)[C@H](Cc1ccccc1)NC(=O)[C@@H]1CCCN1)C(=O)O)C(=O)O (some centres unmarked) [aspartate conjugate] was tested, and the “reactivity with anti-GABA antiserum” value (anti-GABA antiserum; [1]) was “No reactivity”.

For O=C(O)CCNCCCCCNCCCC[C@H](NC(=O)[C@H](Cc1ccccc1)NC(=O)[C@@H]1CCCN1)C(=O)O [beta-alanine conjugate], the “cross-reactivity, times less than that of the GABA-GA-PPL conjugate” value (anti-GABA antiserum) was 175 times.

For NCCc1ccc(O)c(O)c1 [dopamine, reference compound], the “affinity constant KA” value (anti-DA antibodies) was 6.7×10^3 l.mol.^-1 and the “displacement of (3H) DA-G-ALM by unmodified hapten” value (anti-DA antibodies; even at a concentration of 10^-6 M) was “not capable of displacing”.

With O=C(O)CCC(NCCCCCNCCCC[C@H](NC(=O)[C@H](Cc1ccccc1)NC(=O)[C@@H]1CCCN1)C(=O)O)C(=O)O (some centres unmarked) [glutamate conjugate] the “reactivity with anti-GABA antiserum” value (anti-GABA antiserum; [1]) was “No reactivity”.

In the case of O=C(O)CNCCCCCNCCCC[C@H](NC(=O)[C@H](Cc1ccccc1)NC(=O)[C@@H]1CCCN1)C(=O)O [glycine conjugate], the “cross-reactivity, times less than that of the GABA-GA-PPL conjugate” value (anti-GABA antiserum) is reported as 795 times.

O=C(O)[C@H](CCCCNCCCCCNCCS(=O)(=O)O)NC(=O)[C@H](Cc1ccccc1)NC(=O)[C@@H]1CCCN1 [taurine conjugate] was tested, and the “reactivity with anti-GABA antiserum” value (anti-GABA antiserum) was “on the same order or magnitude as with the conjugate of aspartate or glutamate”.
